What was measured:
Format in all cases: cell-based
Caco-2 cells [1] = experiment: Recovery of TEER after decreased epithelial cell-cell adhesion caused by extracellular calcium deficiency (Examples 1-3); conditions: for recovery of TEER in comparison with the negative control group / recovery-promoting effect on TEER in comparison with the positive control group: Example 1, FIG. 1, 1 wt. % in calcium-containing DMEM after 2 h calcium-free DMEM, n=3
Excerpt: (§1) The oligosaccharide containing 1-kestose used in the present Example 1 is composed of 98 wt. % 1-kestose, 1 wt. % nystose, and 1 wt. % sucrose. Namely, it is an oligosaccharide containing 1-kestose at a purity of 98 wt. %. Also, as the index for the cell-cell adhesion strength in cultured cells, transepithelial electrical resistance (TEER) was used. This measurement method utilizes a property that the stronger the epithelial cell-cell adhesion, the bigger the electrical resistance value between the upper layer and the lower layer of the cell culture medium, and this technique is also employed for a model experiment using epithelial cells and the like.
(§2) Caco-2 cells, which are the epithelial colorectal carcinoma cells, were subcultured in a 10% FES-containing DMEM medium (GIBCO), and the 48th generation of cultured cells were cryopreserved and used for the following experiments. The Caco-2 cells were seeded in the upper layer of a Transwell (Corning Life Sciences) and cultured in an incubator in 5% CO2 at 37° C. in the presence of a 10% FBS-containing DMEM medium. Cell culture was performed until the electrical resistance between the upper layer and the lower layer of the Transwell (TEER) reached 400 to 500 Ω·cm^2.
The Caco-2 cells that were cultured until TEER of the Transwell reached 400 to 500 Ω·cm^2 were cultured for two hours after exchanging the 10% FES-containing DMEM medium for a calcium-free DMEM medium. Subsequently, a calcium-containing DMEM medium to which an oligosaccharide containing 1-kestose, or nystose, was added at a concentration of 1 wt. % was added to the upper layer. Then, TEER was chronologically measured every half hour, and the cells were cultured up to 22 hours and then TEER was measured (1% kestose group, 1% nystose group, n=3). As the control group, a group of cells that were cultured only in a calcium-free DMEM medium (negative control group, n=3) and a group in which culture was performed for two hours in a calcium-free DMEM medium, and then the medium was only exchanged for a calcium-containing DMEM medium (positive control group, n=3) were prepared, and chronological changes in TEER were compared.
The Caco-2 cells that were cultured until TEER of the Transwell reached 400 to 500 Ω·cm^2 were cultured for two hours after exchanging the 10% FBS-containing DMEM medium for a calcium-free DMEM medium. Subsequently, a calcium-containing DMEM medium to which an oligosaccharide containing 1-kestose was added at a concentration of 1 wt. % was added to the upper layer. Then, TEER was chronologically measured every half hour, and the cells were cultured up to three hours and then TEER was measured (calcium (+) 1% kestose group, n=3). Also, a group in which an oligosaccharide containing 1-kestose was added at a concentration of 1 wt. % to the calcium-free DMEM medium, while the medium was not exchanged for a calcium-containing DMEM medium, and cell culture was performed up to three hours and then TEER was measured was prepared (calcium (−) 1% kestose group, n=3). As the control group, a group of cells that were cultured only in a calcium-free DMEM medium (negative control group, n=3) and a group in which culture was performed for two hours in a calcium-free DMEM medium, and then the medium was only exchanged for a calcium-containing DMEM medium (positive control group, n=3) were prepared, and chronological changes in TEER were compared.
The Caco-2 cells that were cultured until TEER of the Transwell reached 400 to 500 Ω·cm^2 were cultured for two hours after exchanging the 10% FBS-containing DMEM medium for a calcium-free DMEM medium. Subsequently, a calcium-containing DMEM medium to which an oligosaccharide containing 1-kestose was added at a concentration of 1 wt. % or 0.1 wt. % was added to the upper layer. Then, TEER was chronologically measured every half hour, and the cells were cultured up to 3.5 hours and then TEER was measured (1% kestose group, 0.1% kestose group, n=3). […]

Caco-2 cells [2] = experiment: Inhibition of TEER decrease caused by inflammatory cytokine IL-1β (Example 6)
Excerpt: as §1
Caco-2 cells, which are the epithelial colorectal carcinoma cells, were subcultured in a 10% FES-containing DMEM medium (GIBCO), and the 48th generation of cultured cells were cryopreserved and used for the following experiments. […]
To the upper layer of a DMEM medium in which the Caco-2 cells were cultured until TEER of the Transwell reached 400 to 500 Ω·cm^2, an oligosaccharide containing 1-kestose was added at a concentration of 1 wt. %. […] TEER was measured 48 hours later and a ratio of the value thus measured to the initial measured value of TEER was calculated (1% kestose (+), IL-1β(+) group, n=3). […]

Caco-2 cells [3] = experiment: Lucifer Yellow permeation from upper to lower layer after extracellular calcium deficiency (Example 5); conditions: Example 5, FIG. 6, 3 h; for residual concentration of Lucifer Yellow in the lower layer compared to the negative control group: 1 wt. % in calcium-containing medium, Lucifer Yellow in upper layer
Procedure: as §2
The Caco-2 cells that were cultured until TEER of the Transwell reached 400 to 500 Ω·cm^2 were cultured for two hours after exchanging the 10% FBS-containing DMEM medium for a calcium-free colorless HESS medium (GIBCO). Subsequently, a calcium-containing colorless HESS medium (GIBCO) to which an oligosaccharide containing 1-kestose, sucrose, or nystose was added at a concentration of 1 wt. % was added to the upper layer. At the same time, Lucifer Yellow (MP Biomedical LLC.) was added to the upper layer at a concentration of […] as a substance passing between the cells. After culturing for three hours, the HBSS medium in the lower layer was collected, and the residual concentration of Lucifer Yellow that had permeated from the upper layer to the lower layer was measured (1% kestose group, 1% sucrose group, and 1% nystose group, n=3). As the control group, a group of cells cultured only in a calcium-free HBSS medium (negative control group, n=3) and a group in which culture was performed for two hours in a calcium-free HBSS medium, and then the medium was only exchanged for a calcium-containing HBSS medium (positive control group, n=3) were prepared, and the amounts of substances that passed between the cells were compared.

Caco-2 cells [4] = experiment: Prior administration of 1-kestose, inhibition of TEER decrease caused by extracellular calcium deficiency (Example 4); conditions: for TEER right before exchanging the medium for calcium-free DMEM, versus negative and positive control groups: 1 wt. %; for decrease in TEER after exchange for calcium-free DMEM and elimination of 1-kestose, versus negative control group: 1 wt. % prior administration
Excerpt: as §1, §2
The Caco-2 cells were cultured until TEER of the Transwell reached 400 to 500 Ω·cm^2. The 10% FES-containing DMEM medium was exchanged for a […] DMEM medium, and an oligosaccharide containing 1-kestose was added at a concentration of 1 wt. % to the upper layer. The medium was exchanged for a calcium-free medium one hour or six hours later, and TEER was chronologically measured three times, every half hour (1-hour calcium (+) 1% kestose group, 6-hour calcium (+) 1% kestose group, n=3). As the control group, a group in which culture was performed for one hour or six hours in a calcium- containing DMEM medium, and then in a calcium-free DMEM medium (1-hour calcium (+) negative control group, 6-hour calcium (+) negative control group, n=3) and a group of cells that were cultured only in a calcium-containing DMEM medium (positive control group, n=3) were prepared, and chronological changes in TEER were compared.

[5] = Example 4, FIG. 4, 1-hour calcium (+)
[6] = Example 4, FIG. 5, 6-hour calcium (+)

Row | SMILES | recovery of TEER in comparison with the negative control group (Caco-2 cells [1]) | recovery-promoting effect on TEER in comparison with the positive control group (Caco-2 cells [1]) | promotion of TEER recovery compared to the 1% nystose group (Caco-2 cells [1]; Example 1, 1 wt. %) | recovery-promoting effect relative to the positive control group, on average (Caco-2 cells [1]; Example 1, 1 wt. %, 30 minutes after exchanging calcium-free for calcium-containing DMEM) [times] | effect of promoting recovery of TEER in comparison with the positive control group (Caco-2 cells [1]; Example 2, FIG. 2, calcium (+), 1 wt. %) | recovery of TEER (Caco-2 cells [1]; Example 2, FIG. 2, calcium (+), 1 wt. % in calcium-containing DMEM, up to 3 h) | recovery of TEER (Caco-2 cells [1]; Example 2, FIG. 2, calcium (−), 1 wt. % in calcium-free DMEM, up to 3 h) | recovery of TEER (Caco-2 cells [1]; Example 3, FIG. 3, 0.1 wt. % in calcium-containing DMEM, up to 3.5 h) | promotion of recovery of TEER, 1% group versus 0.1% group (Caco-2 cells [1]; Example 3, FIG. 3, 1 wt. % compared with 0.1 wt. %) | recovery of TEER (Caco-2 cells [1]; Example 3, FIG. 3, 1 wt. % in calcium-containing DMEM, up to 3.5 h) | average TEER ratio (to the initial measured value of TEER) (Caco-2 cells [2]; Example 6, FIG. 7, 1 wt. % for 24 h, then IL-1β 10 ng/mL in lower layer, measured 48 h later, n=3) | inhibition of the decrease of TEER (Caco-2 cells [2]; Example 6, 1 wt. %, IL-1β 10 ng/mL, 48 h) | residual concentration of Lucifer Yellow in the lower layer compared to the negative control group (Caco-2 cells [3]) | residual concentration of Lucifer Yellow in the lower layer compared to the positive control group (Caco-2 cells [3]; 1 wt. %) | residual concentration of Lucifer Yellow in the lower layer, rank among all groups (Caco-2 cells [3]; 1 wt. %) | TEER right before exchanging the medium for calcium-free DMEM, versus negative and positive control groups (Caco-2 cells [4]; [5]) | decrease in TEER after exchange for calcium-free DMEM and elimination of 1-kestose, versus negative control group (Caco-2 cells [4]; [5]) | TEER right before exchanging the medium for calcium-free DMEM, versus negative and positive control groups (Caco-2 cells [4]; [6]) | decrease in TEER after exchange for calcium-free DMEM and elimination of 1-kestose, versus negative control group (Caco-2 cells [4]; [6])
1 | OC[C@H]1O[C@@](CO)(OC[C@@]2(O[C@H]3O[C@H](CO)[C@@H](O)[C@H](O)[C@H]3O)O[C@H](CO)[C@@H](O)[C@@H]2O)[C@@H](O)[C@@H]1O [1-kestose] | significant recovery of TEER | significant recovery-promoting effect | tendency of stronger promotion of recovery | 2.4 | significant effect of promoting recovery of TEER | significant recovery of TEER | Recovery of TEER was hardly observed | significant recovery of TEER | tendency of stronger promotion of recovery of TEER | significant recovery of TEER | 0.849 | approximately 26% | significant reduction in the residual concentration | further reduced residual concentrations | lowest residual concentration | significant increase in TEER | tendency that a decrease in TEER in the 1-hour calcium (+) 1% kestose group was inhibited | significant increase in TEER | tendency that a decrease in TEER in the 6-hour calcium (+) 1% kestose group was inhibited
2 | OC[C@H]1O[C@@](CO)(OC[C@@]2(OC[C@@]3(O[C@H]4O[C@H](CO)[C@@H](O)[C@H](O)[C@H]4O)O[C@H](CO)[C@@H](O)[C@@H]3O)O[C@H](CO)[C@@H](O)[C@@H]2O)[C@@H](O)[C@@H]1O [nystose] | significant recovery of TEER | significant recovery-promoting effect | – | – | – | – | – | – | – | – | – | – | significant reduction in the residual concentration | further reduced residual concentrations | – | – | – | – | –
